US10145848B2, “Small-molecule hydrophobic tagging of fusion proteins and induced degradation of same” (YALE UNIVERSITY, priority 2010, dated 2018)
Residues, ends and D or L forms follow the SMILES beside them. *: point of attachment. Cbz = O=C(OCc1ccccc1)*

What was measured:
Type in all cases: cell-based
[1] = molecular target: T1, luciferase-HaloTag fusion protein (Rhodococcus rhodochrous, UniProt P0A3G2, C176G/H272F/K175M/Y273L); assay: Luciferase assay in HEK 293T cells expressing luciferase-HaloTag; conditions: 1 μM, 24 hours
T1 construct: The HaloTag protein was obtained from pHT2 vector (Promega); luciferase (from pGL3-Basic); expressed in transfected cells
Description: (a) Chemical structures of the representative HaloTag Ligands: HyT5, HyT12, HyT13, HyT16, HyT21 and HyT22. (b) HEK 293T cells expressing HA-HaloTag-luciferase were treated with indicated compounds at 1 μM for 24 hours, at which point luciferase assays were performed.
Ten thousand stable HEK 293T cells infected with HA-luciferase-HaloTag were plated into each well in a 96-well plate. The next day, indicated HyT compounds were added in triplicate and the cells were cultured for another 24 hours. The cells were washed once with cold PBS and lysed in Passive Lysis Buffer (Promega). The luciferase activity was performed by Steady-Glo Luciferase Assay System (Promega) on a Wallac Victor 2 Plate Reader (Perkin Elmer) and the luciferase activity was normalized by protein concentration, as determined by the Bradford assay.
The inventors designed 21 structurally distinct scaffolds as the basis for our hydrophobic Tags (HyTs), and synthesized and tested 30 compounds across these scaffolds composed of hydrophobic moieties linked to the HaloTag haloalkane reactive linker (Table 1, FIG. 5). […]

[2] = molecular target: T2, HA-EGFP-HaloTag fusion protein (Rhodococcus rhodochrous, UniProt P0A3G2, C176G/H272F/K175M/Y273L); assay: Immunoblotting of HA-EGFP-HaloTag in Flp-In 293 cells; conditions: 10 μM pretreatment 1 hour, then 1 μM HyT13, 6 hours
T2 construct: The HaloTag protein was obtained from pHT2 vector (Promega); expressed in transfected cells
Description: Flp-In 293 cells expressing HA-EGFP-HaloTag were treated with indicated concentrations of HyT13 for 24 hours. The lysates were probed with anti-HA and anti-β-actin antibodies, with β-actin serving as a loading control. Shown is quantification of three separate experiments, with error bars representing SEM.
Flp-In 293 cells expressing HA-EGFP-HaloTag cells were treated for the indicated times with 1 μM HyT13 and the lysates were probed with anti-HA and anti-β-actin antibodies. The rightmost sample was treated with HyT13 for 24 hours, after which HyT13-free media was provided for 24 hours. Shown is quantification of three separate experiments, with error bars representing SEM.
The indicated cells were washed twice with cold PBS and the cells were lysed in lysis buffer (1×PBS, 1% NP-40, 1 mM EDTA, 40 mM HEPES) with protease inhibitors. The lysates were cleared by centrifugation at 10,000 g for 5 min. The total protein concentration was determined by Bradford assay and 50 μg of protein was loaded onto an 8% Bis-Tris gel. To solubilize polyubiquitinated and aggregated proteins upon proteasome inhibition^42 samples generated for FIG. 12d were lysed with a SDS lysis buffer (1×PBS, 1% NP-40, 1% SDS, 1% sodium deoxycholate, 1 mM EDTA, 40 mM HEPES) with protease inhibitors. The blots were processed by standard procedures with indicated antibodies, and the band intensities were quantified by ImageJ.
As the luciferase assay relied on the loss-of-activity of the luciferase-HaloTag fusion protein, we wanted to determine whether the decrease in luciferase activity resulted from the degradation of the entire fusion protein or perhaps simply inhibition of luciferase activity. We generated a stable Flp-In 293 cell line with a single integration site containing HA-EGFP-HaloTag fusion protein, and employed this cell line to perform kinetic studies with HyT13. […] Consistent with our previous observations, treatment of these cells with 1 μM of HyT13 for 24 hours reduced the mean fluorescence intensity of cells almost 7-fold. Together, these findings provide the first experimental evidence that hydrophobic tagging represents a viable strategy for the control of protein levels.

HEK293 or HeLa cells = assay: Cell viability with Resazurin (alamarBlue); conditions: indicated concentration, 24 hours
Description: HEK293 or HeLa cells were treated with indicated concentrations of HyT13 for 24 hours. The oxidation-reduction indicator Resazurin (alamarBlue, Invitrogen) was employed to determine cell viability.

Row | SMILES | luciferase activity [1] | effect of proteasome inhibitor on HyT13 mediated degradation [2] | cellular toxicity (positive control) (HEK293 or HeLa cells)
1 | NCCOCCOCCOCCn1cc(CCC(=O)NCCOCCOCCOCC(=O)NCCOCCOCCCCCCCl)nn1 [HyT5, 3-(1-(2-(2-(2-(2-aminoethoxy)ethoxy)ethoxy)ethyl)-1H-1,2,3-triazol-4-yl)-N-(24-chloro-11-oxo-3,6,9,15,18-pentaoxa-12-azatetracosyl)propanamide] | did not decrease the luciferase activity |  | 
2 | CC(=O)NC(CCc1ccccc1)C(=O)NC(CC(C)C)C(=O)NC(Cc1ccccc1)C(=O)NC(CC(C)C)C(=O)C1(C)CO1 (stereo not shown) [YU101, reference compound] |  | blocked HyT13 mediated degradation | toxic to cells
3 | CC(C)C[C@@H](C=O)NC(=O)[C@H](CC(C)C)NC(=O)[C@H](CC(C)C)NC(=O)OCc1ccccc1 [MG132, reference compound] (Cbz-Leu-Leu-Leu-aldehyde) |  | blocked HyT13 mediated degradation | 
